The target of test [1] is Platelet-activating factor receptor (Rattus norvegicus) (UniProt P46002). Put plainly: Tested in vivo for to block the effect of exogenously administered PAF upon oral administration in PAF-induced rat skin permeability assay. In kind it is functional, organism-based.
For test [2] the target is unchanged. Put plainly: Ability to block the effect of exogenously administered PAF upon intravenous administration in PAF-induced rat skin permeability assay. The test is classed as functional, organism-based.

What is called ED50 is the midpoint of the dose-response relation.

Chain of Platelet-activating factor receptor (Rattus norvegicus) (P46002 whole entry): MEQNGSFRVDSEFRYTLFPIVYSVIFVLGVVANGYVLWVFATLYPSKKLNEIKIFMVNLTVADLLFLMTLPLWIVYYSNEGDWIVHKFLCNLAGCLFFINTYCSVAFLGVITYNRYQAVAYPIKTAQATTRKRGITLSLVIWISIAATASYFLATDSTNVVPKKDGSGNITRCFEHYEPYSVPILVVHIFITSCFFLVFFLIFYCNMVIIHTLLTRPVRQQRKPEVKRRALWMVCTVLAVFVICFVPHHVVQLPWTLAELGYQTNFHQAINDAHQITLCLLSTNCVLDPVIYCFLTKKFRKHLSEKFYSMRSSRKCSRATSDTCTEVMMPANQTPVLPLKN

Take `Cc1nc2cnccc2n1Cc1ccc(C(=O)c2cn(C(=O)N(C)C)c3cccc(Cl)c23)cc1`: the ED50 is 0.12 mg/kg in test [1] and 0.008 mg/kg in test [2]. The compound `CCOCCn1cc(C(=O)CN2CCC(n3c(C)nc4cnccc43)CC2)c2c(Cl)cccc21` came in with an ED50 in test [2] of 0.068 mg/kg. On the same count and under the same terms, with `Cc1nc2cnccc2n1Cc1ccc(C(=O)c2cn(C(=O)N(C)C)c3cccc(O)c23)cc1` the figure was more than 1 mg/kg; with `Cc1nc2cnccc2n1Cc1ccc(C(=O)c2c[nH]c3c(OCc4ccccc4)cccc23)cc1`, 0.24 mg/kg. As to `COC(=O)c1cccc2c1c(C(=O)c1ccc(Cn3c(C)nc4cnccc43)cc1)cn2C(=O)N1CCCC1`, the ED50 was 1.2 mg/kg in test [1] and 0.005 mg/kg in test [2].

Consider `CCOCCn1cc(C(=O)c2ccc(Cn3c(C)nc4cnccc43)cc2)c2c(C(=O)OC)cccc21`, for which the ED50 in test [1] turned out to be 1.1 mg/kg; in test [2], 0.012 mg/kg.

Turning to `COC(=O)c1cccc2c1c(C(=O)c1ccc(Cn3c(C)nc4ccccc43)cc1)cn2C(=O)N1CCCC1`, it took a dose of 1 mg/kg to reach the 50% effect level in test [2] (ED50).

Compound `COC(=O)c1cccc2c1c(C(=O)c1ccc(Cn3c(C)nc4cnccc43)s1)cn2C(=O)N(C)C` displayed an ED50 in test [2] of 0.12 mg/kg. Still for that read-out and setting: next, `COC(=O)c1cccc2c1c(C(=O)c1ccc(Cn3c(C)nc4ccccc43)cc1)cn2C(=O)N(C)C`: more than 1 mg/kg; `Cc1nc2cnccc2n1CC(=O)c1cn(C(=O)N(C)C)c2cc(-c3ccc(F)cc3)ccc12`: more than 1 mg/kg. On the same count and under the same terms, with `COC(=O)c1ccc2c(c1)c(C(=O)c1ccc(Cn3c(C)nc4cnccc43)cc1)cn2C(=O)N(C)C` the figure was more than 1 mg/kg. The same measure, in the same setting: with `COC(=O)c1cccc2c1c(C(=O)c1ccc(Cn3c(C)nc4cnccc43)cc1)cn2S(=O)(=O)N(C)C` the figure was 0.074 mg/kg; with `Cc1nc2cnccc2n1Cc1ccc(C(=O)c2cn(C(=O)N(C)C)c3cccc(C(=O)O)c23)cc1`, more than 1 mg/kg. Consider `C#Cc1cccc2c1c(C(=O)c1ccc(Cn3c(C)nc4cnccc43)cc1)cn2C(=O)N(C)C`, for which the values for the ED50 in test [1] and in test [2] were 0.14 mg/kg and 0.003 mg/kg, respectively. As for `COC(=O)c1cccc2c1c(C(=O)c1ccc(Cn3c(C)nc4ccncc43)cc1)cn2C(=O)N(C)C`, in test [2], the ED50 turned out to be 0.24 mg/kg.

Take `COC(=O)c1cccc2c1c(C(=O)c1ccc(Cn3c(C)nc4cccnc43)cc1)cn2C(=O)N(C)C`: it took a dose of 1.2 mg/kg to reach the 50% effect level in test [2] (ED50). On the same count and under the same terms, with `Cc1nc2cnccc2n1Cc1ccc(C(=O)c2c[nH]c3cc(-c4ccc(F)cc4)ccc23)cc1` the figure was 1.3 mg/kg; with `Cc1nc2cnccc2n1Cc1ccc(C(=O)c2cn(C(=O)N(C)C)c3cccc(C(=O)OCc4ccccc4)c23)cc1`, 0.12 mg/kg; with `Cc1nc2cnccc2n1CCCN(C)CC(=O)c1cn(C(=O)N(C)C)c2cc(-c3ccc(F)cc3)ccc12`, more than 1 mg/kg.

With `COC(=O)c1cc(-c2ccc(F)cc2)cc2c1c(C(=O)c1ccc(Cn3c(C)nc4cnccc43)cc1)cn2C(=O)N(C)C`, the ED50 in test [1] was determined as 0.64 mg/kg; in test [2], 0.002 mg/kg. `Cc1nc2cnccc2n1Cc1ccc(C(=O)c2cn(C(=O)N(C)C)c3cccc(NC(=O)c4ccccc4)c23)cc1` showed an ED50 in test [2] of 0.11 mg/kg. Take `COC(=O)c1cccc2c1c(C(=O)Cc1ccc(-n3c(C)nc4cnccc43)cc1)cn2C(=O)N(C)C`: the values for the 50% effective dose (ED50) in test [1] and in test [2] were 0.17 mg/kg and 0.005 mg/kg, respectively. For `Cc1cccc2c1c(C(=O)CN1CCC(n3c(C)nc4cnccc43)CC1)cn2C(=O)N(C)C`, in that order: 0.14 mg/kg and 0.005 mg/kg. Take `C#Cc1cccc2c1c(C(O)c1ccc(Cn3c(C)nc4cnccc43)c(F)c1)cn2C(=O)N(C)C` (centres undefined): it took a dose of 0.007 mg/kg to reach the 50% effect level in test [2] (ED50). `Cc1nc2cnccc2n1Cc1csc(C(=O)c2cn(C(=O)N(C)C)c3cc(-c4ccc(F)cc4)ccc23)n1` had an ED50 in test [2] of 0.35 mg/kg. The same measure, in the same setting: with `Cc1nc2cnccc2n1C1CCN(C(=O)c2cn(C(=O)N(C)C)c3cc(-c4ccc(F)cc4)ccc23)CC1` the figure was more than 1 mg/kg; with `COC(=O)c1cccc2c1c(C(=O)c1ccc(Cn3c(C)nc4ncccc43)cc1)cn2C(=O)N(C)C`, 0.026 mg/kg.

On to `COC(=O)c1cccc2c1c(C(=O)CCCCn1c(C)nc3cnccc31)cn2C(=O)N(C)C`, for which, in test [2], the ED50 is more than 1 mg/kg. With `Cc1cccc2c1c(C(=O)c1ccc(Cn3c(C)nc4cnccc43)cc1)cn2C(=O)N(C)C`, the ED50 came to 0.2 mg/kg in test [1] and 0.004 mg/kg in test [2]. Turning to `COC(=O)c1cccc2[nH]cc(C(=O)c3ccc(Cn4c(C)nc5cnccc54)cc3)c12`, the ED50 in test [2] was 0.15 mg/kg. As to `Cc1nc2cnccc2n1CC1CCN(C(=O)c2cn(C(=O)N(C)C)c3cc(-c4ccc(F)cc4)ccc23)CC1`, the ED50 in test [1] was 2.2 mg/kg; in test [2] it was 0.022 mg/kg. Taken in the same sequence, the figures for `COC(=O)c1ccc(C(=O)OC)c2c(C(=O)c3ccc(Cn4c(C)nc5cnccc54)cc3)c[nH]c12` were 0.71 mg/kg and 0.035 mg/kg. In test [2], `Cc1nc2cnccc2n1Cc1ccc(C(=O)c2cn(C(=O)N(C)C)c3cccc(F)c23)cc1` registered a 50% effective dose (ED50) of 0.18 mg/kg. `Cc1nc2cnccc2n1Cc1ccc(C(=O)c2cn(C(=O)N(C)C)c3cccc(OC(=O)N(C)C)c23)cc1F`: the ED50 in test [1] amounted to 2.7 mg/kg; in test [2], 0.005 mg/kg. For the compound `Cc1nc2ncccc2n1Cc1ccc(C(=O)c2cn(C(=O)N(C)C)c3cccc(Cl)c23)cc1`, the ED50 in test [2] amounted to 0.34 mg/kg. As for `COC(=O)c1cccc2c1c(C(=O)CCCCCCn1c(C)nc3cnccc31)cn2C(=O)N(C)C`, the ED50 in test [2] was more than 1 mg/kg.

As for `COC(=O)c1cccc2c1c(C(=O)C1CCC(Cn3c(C)nc4cnccc43)CC1)cn2C(=O)N(C)C` (centres undefined), the figures for the ED50 in test [1] and in test [2] were more than 1 mg/kg and 0.02 mg/kg, respectively. The compound `Cc1nc2cnccc2n1Cc1ccc(S(=O)(=O)c2cn(C(=O)N(C)C)c3ccccc23)cc1` displayed an ED50 in test [2] of more than 1 mg/kg.

On to `Cc1nc2cnccc2n1Cc1ccc(C(=O)c2cn(C(=O)N(C)C)c3cccc(-c4ccc(F)cc4)c23)cc1`, for which the values for the ED50 in test [1] and in test [2] were 0.45 mg/kg and 0.004 mg/kg, respectively. As to `COc1cccc2c1c(C(=O)c1ccc(Cn3c(C)nc4cnccc43)cc1)cn2C(=O)N(C)C`, the ED50 amounted to 0.22 mg/kg in test [1] and 0.007 mg/kg in test [2]. Taken in the same sequence, the figures for `Cc1nc2cnccc2n1Cc1ccc(C(=O)c2cn(C(=O)N(C)C)c3cccc(-c4ccco4)c23)cc1` were 0.79 mg/kg and 0.007 mg/kg.

The compound `Cc1nc2cnccc2n1Cc1ccc(C(=O)c2cn(C(=O)N(C)C)c3ccccc23)cc1` showed an ED50 in test [2] of 0.18 mg/kg. Compound `COC(=O)c1cccc2c1c(C(=O)c1ccc(Cn3c(C)nc4cnccc43)cc1)cn2C(=O)N(C)C` showed an ED50 in test [1] of 0.22 mg/kg.

Consider `Cc1nc2cnccc2n1Cc1ccc(C(=O)c2cn(C(=O)N(C)C)c3cccc(OC(=O)N(C)C)c23)cc1`, for which the ED50 in test [1] stood at 0.34 mg/kg; in test [2] it was 0.005 mg/kg. For `COC(=O)c1cccc2c1c(C(=O)c1ccc(Cn3c(C)nc4cnccc43)c(F)c1)cn2C(=O)N(C)C`, in that order: 0.36 mg/kg and 0.006 mg/kg. In test [2], `COC(=O)c1cccc2c1c(C(=O)c1ccc(Cn3c(C)nc4c(O)nccc43)cc1)cn2C(=O)N(C)C` registered an ED50 of 0.25 mg/kg. Still for that read-out and setting: with `Cc1nc2cnccc2n1Cc1ccc(C(=O)c2cn(C(=O)N(C)C)c3ccc(-c4ccc(F)cc4)cc23)cc1` the figure was more than 1 mg/kg.

For the compound `CCOC(=O)c1cccc2c1c(C(=O)c1ccc(Cn3c(C)nc4cnccc43)cc1)cn2C(=O)N(C)C`, the ED50 in test [1] is more than 1 mg/kg; in test [2], 0.006 mg/kg. `COC(=O)c1cccc2c1c(C(=O)c1ccc(Cn3c(C)nc4cnccc43)cc1)cn2CC(=O)C(C)(C)C` showed an ED50 in test [2] of 0.036 mg/kg.

`Cc1nc2cnccc2n1CN1CCN(S(=O)(=O)c2cn(C(=O)N(C)C)c3cc(-c4ccc(F)cc4)ccc23)CC1`: the ED50 in test [2] stood at 0.019 mg/kg.

The compound `COC(=O)c1cccc2c1c(C(=O)c1ccc(Cn3c(C)nc4c(C)nc(C)cc43)cc1)cn2C(=O)N(C)C` gave an ED50 in test [2] of more than 1 mg/kg. Same read-out and setting: next, `Cc1nc2cnccc2n1Cc1ccc(C(=O)c2cn(C(=O)N(C)C)c3cccc(C(=O)OC(C)C)c23)cc1`: 0.006 mg/kg. Still for that read-out and setting: next, `COC(=O)c1cccc2c1c(S(=O)(=O)c1ccc(Cn3c(C)nc4cnccc43)cc1)cn2C(=O)N(C)C`: 0.48 mg/kg; `COC(=O)c1cccc2c1c(C(=O)c1ccc(Cn3c(C)nc4cnccc43)cc1)cn2C(C)C`: 0.1 mg/kg.

`C#Cc1cccc2c1c(C(=O)c1ccc(Cn3c(C)nc4c[n+]([O-])ccc43)c(F)c1)cn2C(=O)N(C)C` came in with an ED50 in test [2] of more than 0.5 mg/kg. As for `COC(=O)c1cc(C#Cc2ccccc2)cc2c1c(C(=O)c1ccc(Cn3c(C)nc4cnccc43)cc1)cn2C(=O)N(C)C`, the figures for the ED50 in test [1] and in test [2] were 0.6 mg/kg and 0.004 mg/kg, respectively. `Cc1ccc(C)c2c(C(=O)c3ccc(Cn4c(C)nc5cnccc54)cc3)c[nH]c12` registered an ED50 in test [2] of 0.054 mg/kg. The same measure, in the same setting: next, `Cc1[nH]c2ccccc2c1C(=O)c1ccc(Cn2c(C)nc3cnccc32)cc1`: more than 1 mg/kg; `Cc1nc2cnccc2n1Cc1ccc(C(=O)c2c[nH]c3c(-c4ccc(F)cc4)cccc23)cc1`: more than 1 mg/kg. The same measure, in the same setting: next, `COC(=O)c1[nH]c2cccc(OC)c2c1C(=O)c1ccc(Cn2c(C)nc3cnccc32)cc1`: 0.65 mg/kg; `C#Cc1cccc2c1c(C(=O)c1ccc(Cn3c(C)nc4cnccc43)c(F)c1)cn2C(=O)NC`: 0.006 mg/kg; `CNC(=O)n1cc(C(=O)c2ccc(Cn3c(C)nc4cnccc43)cc2)c2c(C(=O)OC)cccc21`: 0.007 mg/kg. On the same count and under the same terms, next, `COC(=O)c1cccc2c1c(C(=O)c1ccc(Cn3c(C)nc4cnccc43)cc1)cn2S(=O)(=O)C(C)C`: 0.12 mg/kg.

With `Cc1nc2cnccc2n1Cc1ccc(C(=O)c2cn(C(=O)N(C)C)c3cccc(C#N)c23)cc1`, in test [2], the ED50 was 0.23 mg/kg. Same read-out and setting: with `COC(=O)c1cccc2c1c(C(=O)c1ccc(Cn3c(C)nc4cnccc43)cc1)cn2C(N)=O` the figure was 0.12 mg/kg; with `Cc1nc2ccncc2n1Cc1ccc(C(=O)c2cn(C(=O)N(C)C)c3cc(-c4ccc(F)cc4)ccc23)cc1`, 1.1 mg/kg. As for `Cc1nc2cnccc2n1CCN1CCN(C(=O)c2cn(C(=O)N(C)C)c3cc(-c4ccc(F)cc4)ccc23)CC1`, the ED50 in test [2] is more than 1 mg/kg. The same measure, in the same setting: with `COC(=O)c1cccc2c1c(C(=O)c1ccc(Cn3c(C)nc4c[n+]([O-])ccc43)cc1)cn2C(=O)N(C)C` the figure was 0.14 mg/kg; with `C#Cc1cccc2[nH]cc(C(=O)c3ccc(Cn4c(C)nc5cnccc54)c(F)c3)c12`, 0.018 mg/kg; with `COC(=O)c1cc(-c2cc3ccccc3o2)cc2c1c(C(=O)c1ccc(Cn3c(C)nc4cnccc43)cc1)cn2C(=O)N(C)C`, 0.011 mg/kg.

Source of the values: ChEMBL document CHEMBL1131207, “Discovery and evaluation of a series of 3-acylindole imidazopyridine platelet-activating factor antagonists” (J Med Chem, 1998).
